We go through one compound from patent publication US9062037B2, “Tazarotene derivatives” (Stiefel Laboratories, Inc., priority 2009, dated 2015).

Like-named read-outs stand apart in the source and are kept apart here.

The subject of data set [1] is Reconstructed human epidermis (RHE) tissues. Description: RT-qPCR gene expression of K10, K19, filaggrin, K4 and K13 in reconstructed human epidermis (RHE) cultures. As to conditions: 72 h, 2.83 mM in OD/10% DMSO, 6 μl. In kind it is cell-based. How it is done: Reconstructed human epidermis (RHE) tissues were cultured in-house as previously described by Poumay et al. Briefly, polycarbonate culture inserts (12 mm diameter and 0.4 μm pore size, Millipore) were filled with 150 μL of a suspension containing approximately 5×10^5 primary adult human keratinocytes. The inserts received another 500 μL of keratinocyte culture media and were placed in a 6-well plate (1 insert/well) containing 2.5 mL of RHE Growth Media (Epilife media +1.5 mM CaCl2). RHE cultures were incubated at 37° C. in a humidified atmosphere containing 5% CO2, for 24 hours. Subsequently (on Day 0), RHE cultures were exposed to the air-liquid interface by removing the RHE Growth Media from the top of the cultures, and replacing with 1.5 mL/well of RHE Growth Media containing 50 μg/mL vitamin C. Media was changed every other day until the cultures were dosed with Test Articles. A stock solution of 0.1% tazarotene (2.83 mM at 99.5% purity) in OD/10% DMSO was prepared. For tazarotene benzoate, hydroxytazarotenic acid, keto tazarotenic acid, keto tazarotene, and tazarotene nicotinate, a 10 mg/mL stock solution (in DMSO) was already prepared. From this stock solution, a 2.83 mM working solution (in octyldodecanol) was prepared. All other tested compounds were resuspended in DMSO and OD to obtain a final concentration of 2.83 mM in OD/10% DMSO. On Day 12, the cultures were placed in 60 mm petri dishes containing 3 mL of RHE Growth Media (+VitC). Test articles (6 μl) were applied to triplicate cultures and cultures were incubated at 37° C. for 72 hours. Untreated and OD alone served as negative controls. At the end of the incubation period, the growth media was collected and stored at −20° C. The tissues were cut in half: one half was placed in 10% NBF for histology, and the other half was placed in RNAlater™ solution for RT-qPCR. RNA was isolated and concentrations were determined using a NanoDrop spectrophotometer. In addition to using the same amount of RNA for each sample, data was normalized to internal GAPDH mRNA levels and is expressed as relative quantification (RQ) to untreated controls. RNA extracts from each replicate were amplified using RT-qPCR. The relative gene expression of five biomarkers was determined: Keratin 10, Keratin 19, Filaggrin, Keratin 4, and Keratin 13.
A general note: Real-time PCR tracks product formation cycle by cycle.

Data set [2] in a line: Reaction with benzoyl peroxide (BPO) in solution. It is filed as physicochemical. The settings on record: at all three temperatures (35° C., room temperature, 5° C.); BPO 50-fold excess by weight. The procedure:
The reaction of (i) tazarotene, tazarotene benzoate, hydroxy tazarotenic acid and tazarotene nicotinate with (ii) benzoyl peroxide (BPO) in 30% aqueous solutions was monitored at 35° C., room temperature and 5° C.
Individual solutions of each compound were prepared at approximately 0.25 mg/mL in acetonitrile:water (6:4 by volume). Reactions were initiated by mixing equal volumes of the test solution with an approximately 12 mg/mL solution of benzoyl peroxide (BPO) in acetonitrile:water (4:1 by volume). Therefore, the reaction solution contained approximately 0.125 mg/mL of the test compound and the BPO was at a 50-fold excess by weight (i.e. at the same ratio as a product containing 0.1% tazarotene and 5% BPO). Aliquots of the reaction solutions were stored at various temperatures protected from light.
Reactions were quenched by diluting 30 μL of the reaction solution to 50 mL with a diluent (acetonitrile:water in a ratio of 1:1 by volume) and storing the sample at 10° C. in the LC/MS sample tray or at 5° C. for storage. Duplicate samples were prepared at each time point (three at the start of the reaction) and the results were averaged together to generate a single value.
Samples were analyzed on a Waters Acquity UPLC with a Waters Xevo TQMS using an ESI source in the positive mode controlled by MassLynx V4.1 software. […]

For `CCOC(=O)c1ccc(C#Cc2ccc3c(c2)C(C)(C)CC(OC(=O)c2cccnc2)S3)nc1` (stereo not shown) [Compound 7, 6-[4,4-Dimethyl-2-(pyridine-3-carbonyloxy)thiochroman-6-ylethynyl]nicotinic acid ethyl ester], the fold induction at 2830 µM in data set [1] (read-out: K4 Fold Change vs Untreated/OD controls (upregulation)) came out at 23; in data set [1] (read-out: K13 Fold Change vs Untreated/OD controls (upregulation)), 8; in data set [1] (read-out: K19 Fold Change vs Untreated/OD controls (upregulation)), 17. In addition, the “less reactive with BPO than tazarotene and hydroxy tazarotenic acid” value in data set [2] is reported as around 25 times.
